Data as given in PMC11279566, “Novel Coumarin–Nucleobase Hybrids with Potential Anticancer Activity: Synthesis, In Vitro Cell-Based Evaluation, and Molecular Docking” (Pharmaceuticals, 2024).
Read-outs that look alike come from different tables or passages of the source.

Tests used:
[1] = tested on: human laryngeal tumor cells (Hep-2); assay: colorimetric MTT cytotoxicity assay, Hep-2; format: cell-based; settings: for IC50: Homo sapiens, MTT, n = 3, compounds as HP-β-CD inclusion complex; for Selectivity Index Hep-2 24 h: IC50 of HaCat / IC50 of Hep-2, 24 h
Procedure: (§1) The potential antitumor activity of eight new hybrids was evaluated through colorimetric microculture MTT assay against three tumor cell lines: human colon carcinoma cells (HCT116), human laryngeal tumor cells (Hep-2), and human lung carcinoma cells (A549). The hybridized compounds were also assayed against the non-tumor cell line HaCat (human keratinocyte) in order to obtain an indication of their selective cytotoxicity. Also, the commercial anticancer drug doxorubicin was employed as a positive drug standard to compare the cytotoxicity activities. Each experiment was carried out in triplicate on three different days. The selectivity index (SI) was calculated as the ratio between the IC50 (concentration that reduces cell viability by 50%) of HaCat (non-tumor line) and the IC50 of the tumor lines.
(§2) A total of 1 mL of an ethanolic solution containing compounds 7a,b, 8a,b, 9a,b, or 10a,b (0.004 mol L^−1) was vigorously stirred with 1 mL of an aqueous solution of HP-β-CD (0.004 mol L^−1). The resulting mixture was kept under stirring until a clear solution was obtained. The final solution was concentrated under a vacuum to remove the solvent, and the remaining water was removed by lyophilization to give a water-soluble compound of the HP-β-CD complex in a powder form. The stock solutions of the compounds were prepared by dissolving the complexed compounds in 200 µL of DMSO, followed by dissolving in 1800 µL of Dulbecco’s Modified Eagle Medium (DMEM). The stock solution and dilutions were prepared prior to the cytotoxicity assays.
(§3) The human colon carcinoma (HCT116), human laryngeal tumor (Hep-2), and human lung carcinoma (A549) cell lines, and the non-tumor human keratinocyte cell line (HaCat) were purchased from Rio de Janeiro Cell Bank. The cells were maintained in DMEM supplemented with […]; Life Technologies, Carlsbad, CA, USA) and 1% penicillin–streptomycin in a humidified 5% CO2 atmosphere at 37 °C.
(§4) Cytotoxicity was assayed through the colorimetric microculture MTT assay. Cell suspensions were plated in 96-well plates in triplicate at an initial density of 7 × 10^4 cells mL^−1 and incubated at 37 °C for 24 h. After the incubation, the cells were treated with various concentrations of the evaluated compounds (7a,b, 8a,b, 9a,b, or 10a,b) and incubated for 24 and 48 h. After the treatment, the medium was removed, and an MTT solution (0.4 mg mL^−1) was added to each well and further incubated for 2 h at 37 °C. Then, DMSO (100 µL) was added for the solubilization of the formazan crystals, and the absorbance intensities were measured in a microplate reader (SpectraMax M2e, Molecular Devices, Sunnyvale, CA, USA) at 570 nm. The percentage of viable cells was calculated in relation to the control to determine the cytotoxic concentration that reduces 50% of the cell viability (IC50).

[2] = tested on: human colon carcinoma cells (HCT116); assay: colorimetric MTT cytotoxicity assay, HCT116; format: cell-based; settings: for IC50: Homo sapiens, HCT-116, MTT, n = 3, compounds as HP-β-CD inclusion complex; for Selectivity Index HCT116 24 h: IC50 of HaCat / IC50 of HCT116, 24 h; for Selectivity Index HCT116 48 h: IC50 of HaCat / IC50 of HCT116, 48 h
Procedure: as §1, §2, §3, §4

[3] = tested on: HaCat (human keratinocyte); assay: colorimetric MTT cytotoxicity assay, non-tumor HaCat; format: cell-based; settings: for IC50: Homo sapiens, HaCat non-tumor line, MTT, n = 3, compounds as HP-β-CD inclusion complex
Procedure: as §1, §2, §3, §4

[4] = tested on: human lung carcinoma cells (A549); assay: colorimetric MTT cytotoxicity assay, A549; format: cell-based; settings: for IC50: Homo sapiens, MTT, n = 3, compounds as HP-β-CD inclusion complex
Procedure: as §1, §2, §3, §4

[5] = tested on: human prostate cancer cell line (DU145); set-up: method as in PMID 23124212; settings: read-out: IC50 against DU145 cell line; cited from earlier work
[6] = tested on: human acute T lymphoblastic leukemia cell lines (MOLT-3); set-up: method as in PMID 25078311; settings: antiproliferative activity, read-out: IC50 against MOLT3 cell line; cited from earlier work
[7] = Hep-2, 48 h, read-out: IC50 (µM ± SD) Hep-2 48 h
[8] = HCT116, 48 h, read-out: IC50 (µM ± SD) HCT116 48 h
[9] = 48 h, read-out: IC50 (µM ± SD) HaCat 48 h
[10] = Hep-2, 24 h, read-out: IC50 (µM ± SD) Hep-2 24 h
[11] = HCT116, 24 h, read-out: IC50 (µM ± SD) HCT116 24 h
[12] = A549, 24 h, read-out: IC50 (µM ± SD) A549 24 h
[13] = A549, 48 h, read-out: IC50 (µM ± SD) A549 48 h
[14] = 24 h, read-out: IC50 (µM ± SD) HaCat 24 h

Compound | melting point | IC50 [1, 7] [µM] | IC50 [2, 8] [µM] | IC50 [3, 9] [µM] | cytotoxicity for Hep-2 cells (in words) [1] | IC50 [1, 10] [µM] | IC50 [2, 11] [µM] | Selectivity Index HCT116 24 h [2] | Selectivity Index HCT116 48 h [2] | IC50 [4, 12] [µM] | IC50 [4, 13] [µM] | Selectivity Index A549 48 h ([4]; IC50 of HaCat / IC50 of A549, 48 h) | IC50 [3, 14] [µM] | Selectivity Index Hep-2 24 h [1] | IC50 [5] [µM] | IC50 [6] [µM] | activity compared to doxorubicin (fold) ([2]; HCT116 cell line, IC50 relative to doxorubicin) | cytotoxicity effect against A549 cells (in words) ([4]; 24 and 48 h treatments) | cytotoxicity against the non-tumor cells HaCat (in words) ([3]; highest evaluated concentration 100 μM, all exposure times)
COc1cccc2c1C(=O)c1c(O)c3c(c(O)c1C2=O)C[C@@](O)(C(=O)CO)C[C@@H]3O[C@H]1C[C@H](N)[C@H](O)[C@H](C)O1 [Doxorubicin, doxorubicin, reference compound] | – | 1.69 ± 0.15 | 1.23 ± 0.05 | 39.3 ± 1.59 | – | – | – | – | – | – | – | – | – | – | – | – | – | – | –
O=C1C(=O)N(CCCn2cc(Cn3ccc(=O)n(Cc4cn(CCCN5C(=O)C(=O)c6ccc(Cl)cc65)nn4)c3=O)nn2)c2cc(Cl)ccc21 [B] | – | – | – | – | – | – | – | – | – | – | – | – | – | – | 13.9 | – | – | – | –
O=c1ccn(Cc2cn(Cc3cc(=O)oc4c3ccc3ccccc34)nn2)c(=O)[nH]1 [Compound 8a, 1-((1-((2-Oxo-2H-benzo[h]chromen-4-yl)methyl)-1H-1,2,3-triazol-4-yl)methyl) Pyrimidine-2,4(1H,3H)-dione] | 235 °C (dec.) | > 100 | > 100 | > 100 | – | > 100 | > 100 | – | – | > 100 | > 100 | – | > 100 | – | – | – | – | – | –
O=c1ccn(Cc2cn(Cc3cc(=O)oc4cc(O)cc(O)c34)nn2)c(=O)[nH]1 [Compound 7a, 1-((1-((5,7-Dihydroxy-2-oxo-2H-chromen-4-yl)methyl)-1H-1,2,3-triazol-4-yl)methyl) Pyrimidine-2,4(1H,3H)-dione] | 230 °C (dec.) | > 100 | > 100 | > 100 | – | > 100 | > 100 | – | – | > 100 | > 100 | – | > 100 | – | – | – | – | – | –
COc1cccc(/C=C/C(=O)c2cccc(-n3cc(COc4cc(=O)oc5ccccc45)nn3)c2)c1OC [A] | – | – | – | – | – | – | – | – | – | – | – | – | – | – | – | 0.53 | – | – | –
Cc1cn(Cc2cn(Cc3cc(=O)oc4cc(O)cc(O)c34)nn2)c(=O)[nH]c1=O [Compound 7b, 1-((1-((5,7-Dihydroxy-2-oxo-2H-chromen-4-yl)methyl)-1H-1,2,3-triazol-4-yl)methyl)-5-methylpyrimidine-2,4(1H,3H)-dione] | 285 °C (dec.) | > 100 | > 100 | > 100 | – | > 100 | > 100 | – | – | > 100 | > 100 | – | > 100 | – | – | – | – | – | –
Cc1cn(Cc2cn(Cc3cc(=O)oc4c3ccc3ccccc34)nn2)c(=O)[nH]c1=O [Compound 8b, 1-((1-((2-Oxo-2H-benzo[h]chromen-4-yl)methyl)-1H-1,2,3-triazol-4-yl)methyl)-5-methylpyrimidine-2,4(1H,3H)-dione] | 270 to 272 °C | > 100 | > 100 | > 100 | – | > 100 | 87.6 ± 1.94 | 5 | – | > 100 | > 100 | – | 454.1 ± 2.67 | – | – | – | – | – | –

The next lines start with results.

melting point | Compound | IC50 [1, 7] [µM] | IC50 [2, 8] [µM] | IC50 [3, 9] [µM] | cytotoxicity for Hep-2 cells (in words) [1] | IC50 [1, 10] [µM] | IC50 [2, 11] [µM] | Selectivity Index HCT116 24 h [2] | Selectivity Index HCT116 48 h [2] | IC50 [4, 12] [µM] | IC50 [4, 13] [µM] | Selectivity Index A549 48 h ([4]; IC50 of HaCat / IC50 of A549, 48 h) | IC50 [3, 14] [µM] | Selectivity Index Hep-2 24 h [1] | IC50 [5] [µM] | IC50 [6] [µM] | activity compared to doxorubicin (fold) ([2]; HCT116 cell line, IC50 relative to doxorubicin) | cytotoxicity effect against A549 cells (in words) ([4]; 24 and 48 h treatments) | cytotoxicity against the non-tumor cells HaCat (in words) ([3]; highest evaluated concentration 100 μM, all exposure times)
193 to 195 °C | O=c1cc(Cn2cc(Cn3ccc(=O)n(Cc4cn(Cc5cc(=O)oc6c5ccc5ccccc56)nn4)c3=O)nn2)c2ccc3ccccc3c2o1 [Compound 9b, 1,3-Bis((1-((2-oxo-2H-benzo[h]chromen-4-yl)methyl)-1H-1,2,3-triazol-4-yl)methyl)pyrimidine-2,4(1H,3H)-dione] | > 100 | 59.2 ± 1.77 | 3228 ± 3.5 | No appreciative cytotoxicity was observed | > 100 | 54.5 ± 1.74 | 19 | 55 | > 100 | 51 ± 1.71 | 63 | 1049 ± 3.02 | – | – | – | – | – | –
288 to 290 °C | Cn1cnc2c1c(=O)n(Cc1cn(Cc3cc(=O)oc4c3ccc3ccccc34)nn1)c(=O)n2C [Compound 10b, 3,7-Dimethyl-1-((1-((2-oxo-2H-benzo[h]chromen-4-yl)methyl)-1H-1,2,3-triazol-4-yl)methyl)-3,7-dihydro-1H-purine-2,6-dione] | > 100 | 84.7 ± 1.92 | 120 ± 2.08 | – | > 100 | 41 ± 1.61 | 6 | – | > 100 | > 100 | – | 263.3 ± 2.42 | – | – | – | – | – | –
315 °C (dec.) | Cn1cnc2c1c(=O)n(Cc1cn(Cc3cc(=O)oc4cc(O)cc(O)c34)nn1)c(=O)n2C [Compound 10a, 1-((1-((5,7-Dihydroxy-2-oxo-2H-chromen-4-yl)methyl)-1H-1,2,3-triazol-4-yl)methyl)-3,7-dimethyl-3,7-dihydro-1H-purine-2,6-dione] | > 100 | > 100 | > 100 | – | 56.6 ± 1.75 | 78.3 ± 1.89 | 4 | – | > 100 | > 100 | – | 307.8 ± 2.49 | 5 | – | – | – | – | –
302 °C (dec.) | O=c1cc(Cn2cc(Cn3ccc(=O)n(Cc4cn(Cc5cc(=O)oc6cc(O)cc(O)c56)nn4)c3=O)nn2)c2c(O)cc(O)cc2o1 [Compound 9a, 1,3-Bis((1-((5,7-dihydroxy-2-oxo-2H-chromen-4-yl)methyl)-1H-1,2,3-triazol-4-yl)methyl)pyrimidine-2,4(1H,3H)-dione] | > 100 | 24.2 ± 1.39 | 142 ± 2.15 | – | 51.6 ± 1.71 | 69.2 ± 1.85 | – | 6 | > 100 | > 100 | – | 634.9 ± 2.8 | 12 | – | – | approximately 20 fold | No cytotoxicity effect was observed | did not exhibit appreciable cytotoxicity
